Among the data in ChEMBL document CHEMBL1154244, “Isoflavonoids from Erythrina poeppigiana: evaluation of their binding affinity for the estrogen receptor” (J Nat Prod, 2009) are Ratio IC50 values, retold here.

The species named for this experiment is Homo sapiens. The experiment can be described thus: Selectivity ratio of IC50 for human recombinant ERalpha to IC50 for human recombinant ERbeta.

In the case of `CC(C)=CCc1cc(-c2coc3cc(O)cc(O)c3c2=O)ccc1O`, the Ratio IC50 amounted to 0.6.
Next, `COc1ccc2c(c1CC=C(C)C)O[C@H]1c3ccc(O)cc3OC[C@@]21O`: 2.2; `COc1cc(O)c2c(=O)c(-c3cc4c(cc3O)OC(C)(C)C(O)C4)coc2c1` (stereo not drawn): 16.
Next, `COc1cc(O)c2c(=O)c(-c3ccc(O)c(CC(O)=C(C)C)c3)coc2c1`: 2.3; `CC(C)=CCc1c(O)cc2occ(-c3ccc(O)cc3)c(=O)c2c1O`: 0.6; `COc1cc(O)c2c(=O)c(-c3cc(CC=C(C)C)c(O)cc3O)coc2c1`: 0.7.
Next, `CCCc1c(-c2ccc(O)cc2)nn(-c2ccc(O)cc2)c1-c1ccc(O)cc1`: 36; `CC1(C)C=Cc2c(cc3occ(-c4ccc(O)cc4)c(=O)c3c2O)O1`: 0.7.
